Assay results reported in PMC7695371, “Mimetics of extra virgin olive oil phenols with anti-cancer stem cell activity” (Aging (Albany NY), 2020).

Experiments:
[1] = biological target: T1, DNMT3A (Homo sapiens, UniProt Q9Y6K1); experiment: HotSpot radioisotope filter-binding methyltransferase assay, 10-dose; type: biochemical
T1 construct: recombinant, Reaction Biology Corp. HotSpot assay

[2] = biological target: FRAP1 (mTOR) (Homo sapiens, UniProt P42345); experiment: FRET-based Z-LYTE kinase assay, […] concentrations; type: biochemical

T1 sequence (Q9Y6K1 whole entry, looked up): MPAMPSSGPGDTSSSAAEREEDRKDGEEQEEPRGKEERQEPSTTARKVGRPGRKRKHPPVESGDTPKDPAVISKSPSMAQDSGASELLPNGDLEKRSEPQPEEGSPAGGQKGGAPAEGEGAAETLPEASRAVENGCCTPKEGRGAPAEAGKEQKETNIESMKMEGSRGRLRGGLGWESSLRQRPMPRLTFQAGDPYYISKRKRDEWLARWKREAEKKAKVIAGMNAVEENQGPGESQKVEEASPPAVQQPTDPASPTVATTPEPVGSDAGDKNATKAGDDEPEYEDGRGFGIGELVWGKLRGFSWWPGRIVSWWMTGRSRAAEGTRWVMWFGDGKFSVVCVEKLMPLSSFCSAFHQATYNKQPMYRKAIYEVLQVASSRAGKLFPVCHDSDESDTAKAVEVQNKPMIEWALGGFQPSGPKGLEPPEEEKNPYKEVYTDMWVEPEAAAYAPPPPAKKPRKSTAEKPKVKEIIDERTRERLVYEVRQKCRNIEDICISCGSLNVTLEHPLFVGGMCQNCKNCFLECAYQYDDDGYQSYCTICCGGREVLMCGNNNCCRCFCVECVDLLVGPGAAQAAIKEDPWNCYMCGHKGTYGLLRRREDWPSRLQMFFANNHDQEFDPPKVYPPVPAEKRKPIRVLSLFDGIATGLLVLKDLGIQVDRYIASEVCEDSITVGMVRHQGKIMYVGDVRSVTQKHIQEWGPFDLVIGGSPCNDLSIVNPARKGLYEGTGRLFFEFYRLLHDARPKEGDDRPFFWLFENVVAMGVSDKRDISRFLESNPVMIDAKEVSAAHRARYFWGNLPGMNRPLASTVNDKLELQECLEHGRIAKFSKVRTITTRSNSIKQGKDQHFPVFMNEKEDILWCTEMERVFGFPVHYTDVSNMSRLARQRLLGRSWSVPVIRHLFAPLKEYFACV

CCCC(=O)OCCc1ccc(O)c(O)c1 [CHEMBL1950046, 3,4-Dihydroxyphenethyl butyrate]
IC50 [1]: > 150 µM
IC50 [2]: ~39 µM
